Assays:
[1] = target: T1, Nuclear receptor ROR-gamma (Homo sapiens, UniProt P51449); assay: Antagonist activity at N-terminal GST tagged human RORgamma LBD using fluorescein-D22 as coactivator incubated for 60 mins by Lanthascreen TR-FRET assay
T1 sequence (P51449 whole entry): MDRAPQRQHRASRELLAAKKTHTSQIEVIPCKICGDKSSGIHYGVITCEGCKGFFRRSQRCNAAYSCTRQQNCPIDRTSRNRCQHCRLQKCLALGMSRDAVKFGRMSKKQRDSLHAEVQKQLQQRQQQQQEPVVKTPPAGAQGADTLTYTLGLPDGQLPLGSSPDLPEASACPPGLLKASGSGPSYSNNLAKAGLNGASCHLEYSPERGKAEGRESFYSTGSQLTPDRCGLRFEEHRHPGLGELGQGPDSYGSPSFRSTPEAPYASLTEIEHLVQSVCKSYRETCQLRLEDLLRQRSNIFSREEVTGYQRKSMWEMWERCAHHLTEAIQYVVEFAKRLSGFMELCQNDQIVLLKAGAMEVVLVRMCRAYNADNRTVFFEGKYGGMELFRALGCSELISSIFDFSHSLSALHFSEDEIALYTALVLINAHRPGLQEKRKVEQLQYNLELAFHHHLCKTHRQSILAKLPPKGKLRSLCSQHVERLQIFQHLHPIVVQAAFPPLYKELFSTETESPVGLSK

[2] = Microsomal stability in human liver microsomes assessed as half life; assay type: ADME, Microsome
[3] = Microsomal stability in rat liver microsomes assessed as half life; assay type: ADME, Microsome
MC-38 [4] = assay: Antitumor activity against mouse MC38 cells injected C57BL/6 mouse syngenic model assessed as tumor growth inhibition at 10 mg/kg, po administered once daily for 25 days in combination with anti-mouse PD-1 monoclonal antibody at 5 mg/kg, ip relative to control; assay type: functional; settings: C57BL/6, MC-38, 600 h, time 25 day, read-out: TGI
[5] = Effects of compound in IL-17 production in CD3/CD28-stimulated C57BL/6 mouse tumor lymphocytes assessed as increase in IL-17 production at 10 mg/kg in combination with anti-mouse PD1 monoclonal antibody at 5 mg/kg by ELISA (Rvb= 29 +/- 9 pg/ml); assay type: functional, Lymphocyte
[6] = Volume of distribution in mouse at 2 mg/kg, po; assay type: ADME, organism-based; settings: in vivo
[7] = Half life in dog at 0.5 mg/kg, iv; assay type: ADME, organism-based, Canis lupus familiaris; settings: in vivo
[8] = Cmax in rat at 2 mg/kg, po; assay type: ADME, organism-based; parameters: dose 2 mg/kg, route po; settings: in vivo
[9] = AUC (0 to t) in rat at 2 mg/kg, po; assay type: ADME, organism-based; parameters: dose 2 mg/kg, route po; settings: in vivo
[10] = Volume of distribution in rat at 2 mg/kg, po; assay type: ADME, organism-based; settings: in vivo
Mus musculus [11] = assay: Toxicity in C57BL/6 mouse infected with mouse MC38 cells assessed as change in body weight at 10 mg/kg, po administered once daily for 25 days and measured twice a week; assay type: organism-based, MC-38; settings: in vivo, 600 h, time 25 day
[12] = Effects of compound in IFNgamma production in CD3/CD28-stimulated C57BL/6 mouse tumor lymphocytes assessed as increase in IFNgamma production at 10 mg/kg in combination with anti-mouse PD1 monoclonal antibody at 5 mg/kg by ELISA (Rvb= 1467 +/- 878 pg/ml); assay type: functional, Lymphocyte
[13] = Drug exposure in plasma of C57BL/6 mouse injected with mouse MC38 cells at 10 mg/kg, po measured 3 hrs post dose on day 25 in combination with anti-mouse PD1 monoclonal antibody at 5 mg/kg, ip by LC/MS analysis; assay type: ADME, organism-based, MC-38; settings: time 25 day
[14] = Clearance in dog at 0.5 mg/kg, iv; assay type: ADME, organism-based, Canis lupus familiaris; settings: in vivo
[15] = Effects of compound in IL-17 production in CD3/CD28-stimulated C57BL/6 mouse tumor lymphocytes assessed as increase in IL-17 production at 10 mg/kg by ELISA (Rvb= 19 +/- 5 pg/ml); assay type: functional, Lymphocyte
Mus musculus [16] = assay: Toxicity in C57BL/6 mouse injected with mouse MC38 cells assessed as change in body weight at 10 mg/kg, po administered once daily for 25 days in combination with anti-mouse-PD1 monoclonal antibody at 5 mg/kg, ip and measured twice a week; assay type: organism-based, MC-38; settings: in vivo, 600 h, time 25 day
[17] = Half life in mouse at 1 mg/kg, iv; assay type: ADME, organism-based; settings: in vivo, iv, 1 mg/kg
[18] = Drug exposure in tumor of C57BL/6 mouse injected with mouse MC38 cells at 10 mg/kg, po measured 3 hrs post dose on day 25 by LC/MS analysis; assay type: ADME, organism-based, Neoplasm, MC-38; settings: time 25 day, read-out: Drug uptake
[19] = Effects of compound in IFNgamma production in CD3/CD28-stimulated C57BL/6 mouse tumor lymphocytes assessed as increase in IFNgamma production at 10 mg/kg by ELISA (Rvb= 262 +/- 81 pg/ml); assay type: functional, Lymphocyte
[20] = AUC (0 to t) in rat at 1 mg/kg, iv; assay type: ADME, organism-based; parameters: dose 1 mg/kg, route iv; settings: in vivo
[21] = Half life in rat at 1 mg/kg, iv; assay type: ADME, organism-based; settings: in vivo
[22] = Half life in mouse at 2 mg/kg, po; assay type: ADME, organism-based; settings: in vivo
[23] = Volume of distribution in dog at 2 mg/kg, po; assay type: ADME, organism-based, Canis lupus familiaris; settings: in vivo
[24] = Volume of distribution in mouse at 1 mg/kg, iv; assay type: ADME, organism-based; settings: in vivo, iv, 1 mg/kg
[25] = AUC (0 to t) in dog at 0.5 mg/kg, iv; assay type: ADME, organism-based, Canis lupus familiaris; parameters: dose 0.5 mg/kg, route iv; settings: in vivo
[26] = Oral bioavailability in dog; assay type: ADME, organism-based, Canis lupus familiaris; settings: in vivo
[27] = Cmax in dog at 2 mg/kg, po; assay type: ADME, organism-based, Canis lupus familiaris; parameters: dose 2 mg/kg, route po; settings: in vivo
[28] = Cmax in mouse at 2 mg/kg, po; assay type: ADME, organism-based; parameters: dose 2 mg/kg, route po; settings: in vivo
[29] = AUC (0 to t) in mouse at 1 mg/kg, iv; assay type: ADME, organism-based; parameters: dose 1 mg/kg, route iv; settings: in vivo
[30] = Oral bioavailability in mouse; assay type: ADME, organism-based; settings: in vivo
[31] = Oral bioavailability in rat; assay type: ADME, organism-based; settings: in vivo
[32] = Volume of distribution in rat at 1 mg/kg, iv; assay type: ADME, organism-based; settings: in vivo
[33] = Drug exposure in tumor of C57BL/6 mouse injected with mouse MC38 cells at 10 mg/kg, po measured 3 hrs post dose on day 25 in combination with anti-mouse PD1 monoclonal antibody at 5 mg/kg, ip by LC/MS analysis; assay type: ADME, organism-based, Neoplasm, MC-38; settings: time 25 day, read-out: Drug uptake
[34] = AUC (0 to t) in mouse at 2 mg/kg, po; assay type: ADME, organism-based; parameters: dose 2 mg/kg, route po; settings: in vivo
[35] = AUC (0 to t) in dog at 2 mg/kg, po; assay type: ADME, organism-based, Canis lupus familiaris; parameters: dose 2 mg/kg, route po; settings: in vivo
[36] = Drug exposure in plasma of C57BL/6 mouse injected with mouse MC38 cells at 10 mg/kg, po measured 3 hrs post dose on day 25 by LC/MS analysis; assay type: ADME, organism-based, MC-38; settings: time 25 day
MC-38 [37] = assay: Antitumor activity against mouse MC38 cells injected C57BL/6 mouse syngenic model assessed as tumor growth inhibition at 10 mg/kg, po administered once daily for 25 days relative to control; assay type: functional; settings: C57BL/6, MC-38, 600 h, time 25 day, read-out: TGI
[38] = Half life in rat at 2 mg/kg, po; assay type: ADME, organism-based; settings: in vivo
[39] = Half life in dog at 2 mg/kg, po; assay type: ADME, organism-based, Canis lupus familiaris; settings: in vivo
[40] = Volume of distribution in dog at 0.5 mg/kg, iv; assay type: ADME, organism-based, Canis lupus familiaris; settings: in vivo
[41] = Clearance in rat at 1 mg/kg, iv; assay type: ADME, organism-based; settings: in vivo

Structure (SMILES): CCS(=O)(=O)c1ccc(CNC(=O)c2ccc3c(c2)cc(Cc2ccccc2)n3C(C)C)cc1
- EC50 [1]: 683 nM

Structure (SMILES): CCS(=O)(=O)c1ccc(CNC(=O)c2ccc3c(c2)cc(Cc2ccc(Cl)cc2C(F)(F)F)n3C2CC2)cc1
- half-life [2]: 2.32 h
- half-life [3]: 1.7 h

Structure (SMILES): CCS(=O)(=O)c1ccc([C@H](CO)NC(=O)c2ccc3c(c2)cc(Cc2ccc(Cl)cc2C(F)(F)F)n3CCF)cc1
- inhibition in vivo at 10 mg/kg (MC-38 [4]): 62%
- Activity [5]: 81 pg/mL
- Vd [6]: 0.637 L/kg
- half-life [7]: 8.8 h
- Cmax [8]: 55.7 ng/mL
- AUC(0-t) [9]: 618 ng·h/mL
- Vd [10]: 25.7 L/kg
- Activity (Mus musculus [11]): Non-Toxic
- Activity [12]: 2455 pg/mL
- concentration at 600 h [13]: 10800 ng/mL
- clearance [14]: 0.954 mL/min/kg
- Activity [15]: 36 pg/mL
- Activity (Mus musculus [16]): Non-Toxic
- t1/2 [17]: 5.04 h
- concentration at 600 h [18]: 2020 ng/mL
- Activity [19]: 1217 pg/mL
- AUC(0-t) [20]: 1050 ng·h/mL
- half-life [21]: 2.67 h
- half-life [22]: 11.2 h
- Vd [23]: 0.873 L/kg
- Vd [24]: 0.877 L/kg
- AUC(0-t) [25]: 8640 ng·h/mL
- bioavailability [26]: 84.2%
- Cmax [27]: 2080 ng/mL
- Cmax [28]: 3660 ng/mL
- AUC(0-t) [29]: 79800 ng·h/mL
- bioavailability [30]: 31.7%
- bioavailability [31]: 29.4%
- Vd [32]: 3.65 L/kg
- concentration at 600 h [33]: 2320 ng/mL
- AUC(0-t) [34]: 50600 ng·h/mL
- AUC(0-t) [35]: 29100 ng·h/mL
- concentration at 600 h [36]: 9120 ng/mL
- inhibition in vivo at 10 mg/kg (MC-38 [37]): 37%
- half-life [38]: 5.96 h
- half-life [39]: 11.8 h
- Vd [40]: 0.654 L/kg
- clearance [41]: 16.2 mL/min/kg
